Source: US20150056702A1, “METHOD AND KIT FOR CULTURING STEM CELLS” (China Medical University, priority 2013, published 2015)

Legend:
Format in all cases: cell-based, mouse
OSM = assay: Real-time PCR, cytokine gene OSM in ES cells; details: for Osm mRNA expression level: ES cells, control group = 100%
Description: (§1) An experimental group medium (BP5, BP10, BP20 or BP40) and a control group medium (without BP) were added respectively to perform the following steps. ES cells were cultured with an initial density of 1×10^4 per well in a 6-well culture dish. The medium was removed until the cells growth to be about 70 to 80% confluence, and then 1 ml TRIzol (Invitrogen) was added into each well. The cells were incubated for 5 minutes, and then was scraped by a spatula and placed into a 1.5 ml microtube to be lysed adequately. Chloroform (0.2 ml) was added into the microtubes. The mixture was shaken up and down for 15 seconds, and then incubated at room temperature for 2 to 3 minutes. Thereafter, the mixture was centrifuged at 12000 rpm at 4° C. for 15 minutes, and the supernatant was removed into another 1.5 ml microtube and isopropanol (0.5 ml) was added into the microtube with well mixing. The mixture was incubated at room temperature for 10 minutes and then centrifuged at 12000 rpm at 4° C. for 10 minutes. The supernatant was then removed. One ml of 70% ethanol containing DEPC.H2O was used to wash the remaining sediment. The sediment was centrifuged at 7500 rpm at 4° C. for 5 minutes. The supernatant was removed. The sediment was dried by vacuum suction. The dried samples were dissolved in about 0.01 to 0.02 ml of DEPC.H2O to obtain the experimental group RNA and control group RNA. Both groups were stored at −80° C.
(§2) The OD value of RNA samples in both groups obtained from the above Experiment I were measured at a wavelength of 260 nm (RNA: OD260=1 for a 40 μg/mL solution). Each RNA sample (2 μl) was added with RNA-free water until the volume of the sample reached 10 μl. Two μl oligo (dT) (100 μg/ml) was added into each sample, and the samples were incubated at 65° C. for 5 minutes. Then, the samples were immediately placed on ice and spun down. Next, 6.5 μl of a reaction solution [4 μl of 5× buffer+1 μl of 0.1 M DTT+1 μl of RNase out+0.5 μl of SSIII (Invitrogen)] was added into each of the samples, and the samples were incubated at 50° C. for about 30 to 60 minutes and at 75° C. for 15 minutes to obtain the experimental group cDNA and control group cDNA. Both groups were stored at −80° C.
(§3) This experiment was used to detect the expression levels of ES cell-related genes, i.e., Oct4 and Sox2, etc. First, 4 μl of the experimental group cDNA or control group cDNA was added into each well of a 96-well micro-reaction plate, and mixed with 6 μl of a reaction solution [0.5 μl of 6 μM forward primer+0.5 μl of 6 μM reverse primer+5 μl of SYBR Green PCR Master mix (Roche)], wherein the SYBR Green PCR Master mix included the reagents needed for Q-PCR, such as dNTPs, MgCl, Taq DNA polymerase and 2×SYBR® Green I solution. […] The cycle threshold (CT) values were measured. […]

Jak2 = assay: Real-time PCR, Jak2 mRNA in ES cells; details: for Jak2 Gene expression level: ES cells, control group = 100%
Description: as §1, §2, §3

iPS cells = assay: Alkaline phosphatase staining of iPS cells; details: 72 hours, control group = 100%
Description: The protocol shown in experiment A was repeated, while an iPS cell (received from Riken Research Center, Japan) was cultured at step (4).
The protocol shown in experiment C was repeated, while an iPS cell (received from Riken Research Center, Japan) was cultured at step (2).
Alkaline phosphatase is a marker protein of stem cells. The activity measured by staining could be used to determine if BP can effectively maintain the self-renewal and/or pluripotency of stem cells.
An experimental group medium (BP5, BP10, BP20 or BP40), a LIF-containing medium (without BP) and a control group medium (without BP) were used respectively to culture ES cells in a 6-well culture dish with an initial density of 1×10^4 per well for 72 hours. The medium was removed and the cells were washed two times with PBS. Next, PBS was removed, and 1 ml of 80% ethanol was added into each well to perform the fixation at 4° C. for 2 to 24 hours. Next, ethanol was removed, and then the cells were washed one time with distilled water. The distilled water was added again to soak the cells for 2 to 3 minutes, and then be removed. Next, the cells were soaked with a Tris-HCl buffer (100 mM, pH 8.2 to 8.5) at room temperature for 5 minutes, and then, the buffer was removed. Next, a Leukocyte Alkaline Phosphatase kit (Vector) was used to perform the staining for 20 to 30 minutes, and then the Alkaline Phosphatase Substrate working solution was removed, the cells were soaked and washed by Tris-HCl buffer (100 mM, pH 8.2 to 8.5) and then be observed by a fluorescent microscope to count the number of the AP-positive clones. The undifferentiated ES cells with a higher activity show a red color, while the differentiated ES cells with a lower activity show a weak red color or are even colorless.
By using the above culture conditions, an experimental group medium (BP5, BP10, BP20 or BP40), a LIF-containing medium (without BP), and a control group medium (without BP) were used respectively to culture iPS cells. Then, the staining of iPS cells was performed by the steps described above. The undifferentiated iPS cells with a higher activity show a red color and the differentiated iPS cells with a lower activity show a weak red color or are even colorless.

[1] = BP10 medium (about 10 μg BP/ml)
[2] = LIF-containing medium (LIF 4 ng/ml, without BP)

| Molecule | Osm mRNA expression level (OSM; BP5 medium (about 5 μg BP/ml)) [%] | Osm mRNA expression level (OSM; [1]) [%] | mRNA expression level of OSM (OSM; BP-containing ES cell medium, result in words) | Jak2 Gene expression level (Jak2; BP5 medium (about 5 μg BP/ml)) [%] | Jak2 Gene expression level (Jak2; [1]) [%] | mRNA expression level of Jak2 (Jak2; BP-containing ES cell medium (BP5 or BP10), result in words) | AP-positive clones (iPS cells; BP5 medium (about 5 μg BP/ml)) [%] | AP-positive clones (iPS cells; [1]) [%] | AP-positive clones (iPS cells; BP20 medium (about 20 μg BP/ml)) [%] | AP-positive clones (iPS cells; BP40 medium (about 40 μg BP/ml)) [%] | Osm mRNA expression level (OSM; LIF-containing medium (LIF 4 ng/ml)) [%] | Jak2 Gene expression level (Jak2; [2]) [%] | AP-positive clones (iPS cells; [2]) [%] |
| --- | --- | --- | --- | --- | --- | --- | --- | --- | --- | --- | --- | --- | --- |
| CCCC=C1OC(=O)c2ccccc21 [BP, n-butylidenephthalide] | 109 | 246 | significantly up-regulated | 180 | 211 | significantly up-regulated | 85 | 128 | 192 | 129 | – | – | – |
| LIF: multifunctional cell factor used to maintain pluripotency of stem cells; LIF-containing medium (4 ng/ml, without BP) as comparison | – | – | – | – | – | – | – | – | – | – | 128 | 159 | 226 |
